# In patent publication US20230092679A1, “MCL-1 INHIBITOR ANTIBODY-DRUG CONJUGATES AND METHODS OF USE” (NOVARTIS AG, priority 2019, published 2023):
# Tests used:
# Assay type in all cases: cell-based
# 5339hx = assay: In vitro ADC activity, AML cell lines, CellTiter-Glo (Example 20); conditions: 5 days
# KMS-20 = assay: CellTiter-Glo proliferation assay, anti-CD48 ADCs (Example 18); conditions: KMS-20, 5 days
# Description: (§1) The CD48 MCL-1 antibody drug conjugate CD48-L7-P1, isotype IgG1-L7-P1 ADC, and MCL-1 free payload P1 were tested against four endogenous cancer cell lines. KMS-21 BM (JCRB No. JCRB11185 cultured in RPMI-1640+10% FBS), KMS-20 (JCRB No. JCRB1196 cultured in RPMI-1640+10% FBS), KMS-27 (JCRB No. JCRB1188 cultured in RPMI-1640+10% FBS), and NCI-H929 (ATCC No. CRL-9068 cultured in RPMI-1640+10% FBS+0.05 mM 2-mercaptoethanol).
# (§2) The ability of the CD48 MCL-1 antibody drug conjugate CD48-L7-P1, isotype IgG1-L7-P1 ADC, and MCL-1 free payload P1 to inhibit cell proliferation and survival was assessed using the Promega CellTiter-Glo® proliferation assay.
# (§3) Cell lines were cultured in media that is optimal for their growth at 5% CO2, 37° C. in a tissue culture incubator. Prior to seeding for the proliferation assay, the cells were split at least 2 days before the assay to ensure optimal growth density. On the day of seeding, suspension cells were harvested. Cell viability and cell density were determined using a cell counter (Vi-Cell XR Cell Viability Analyzer, Beckman Coulter). […] Cells were seeded at a density of 1,000 cells per well in 45 μL of standard growth media. Plates were incubated at 5% CO2, 37° C. overnight in a tissue culture incubator. The next day, free MCL-1 payload (P1), targeting MCL-1 ADC, and non-targeting isotype ADCs were prepared at 10× in standard growth media. The prepared drug treatments were then added to the cells resulting in final concentrations of 0.0005-500 nM and a final volume of 50 μL per well. Each drug concentration was tested in quadruplets. Plates were incubated at 5% CO2, 37° C. for 5 days in a tissue culture incubator, after which cell viability was assessed through the addition of 25 μL of CellTiter Glo® (Promega, cat #G7573), a reagent which lyses cells and measures total adenosine triphosphate (ATP) content. Plates were incubated at room temperature for 10 minutes to stabilize luminescent signals prior to reading using a luminescence reader (EnVision Multilabel Plate Reader, PerkinElmer). To evaluate the effect of the drug treatments, luminescent counts from wells containing untreated cells (100% viability) were used to normalize treated samples. A variable slope model was applied to fit a nonlinear regression curve to the data in GraphPad PRISM version 7.02 software. IC50 and Amax values were extrapolated from the resultant curves.
# (§4) The dose response curves of representative cancer cell lines expressing the CD48 target of interest are shown in FIG. 22 (square=CD48-L7-P1, circle IgG-L7-P1, triangle=free MCL1 payload P1).
# NCI-H929 = assay: as above; conditions: NCI-H929, 5 days
# Description: as §1, §2, §3, §4
# KMS-21 BM = assay: as above; conditions: 5 days
# Description: as §1, §2, §3, §4
# KMS-27 = assay: as above; conditions: KMS-27, 5 days
# Description: as §1, §2, §3, §4
# aml193 = assay: In vitro ADC activity, AML cell lines, CellTiter-Glo (Example 20); conditions: aml193, 5 days
# hel9217 = assay: as above; conditions: hel9217, 5 days
smiles,measurement,setting,value
"COc1ccccc1-c1nccc(COc2ccccc2C[C@@H](Oc2ncnc3sc(-c4ccc(F)cc4)c(-c4ccc(OCCN5CCN(C)CC5)c(Cl)c4C)c23)C(=O)O)n1 [P1, (2R)-2-[5-[3-chloro-2-methyl-4-[2-(4-methylpiperazin-1-yl)ethoxy]phenyl]-6-(4-fluorophenyl)thieno[2,3-d]pyrimidin-4-yl]oxy-3-[2-[[2-(2-methoxyphenyl)pyrimidin-4-yl]methoxy]phenyl]propanoic acid]",GI50,5339hx; 120 h,5 nM
same,Amax,5339hx; in % (unit assumed),−83
same,IC50,KMS-20; 120 h,4.95 nM
same,Amax,KMS-20; in %,94.34
same,IC50,"NCI-H929; Homo sapiens, 120 h",2.04 nM
same,Amax,NCI-H929; in %,109.1
same,IC50,KMS-21 BM; 120 h,0.941 nM
same,Amax,KMS-21 BM; in %,85.27
same,IC50,KMS-27; 120 h,6.98 nM
same,Amax,KMS-27; in %,88.98
same,GI50,aml193; 120 h,6 nM
same,Amax,aml193; in % (unit assumed),−87
same,GI50,"hel9217; Homo sapiens, HEL 92.1.7, 120 h",5280 nM
same,Amax,hel9217; in % (unit assumed),−1
